From PubChem BioAssay AID624167 (Sanford-Burnham Center for Chemical Genomics, 2012)
The source made the active and inactive calls.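 Rule for the calls: active = mean IC50 for reducing PEG3 promoter reporter signal at or below a set limit, with IC50 above the limit in both counter screens; inactive = the rest, including counter screen hits.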

Assays:
Test in all cases: Peg3 promoter luciferase inhibitors, potency, dose response, cell-based, HeLa, CREF/GAPDH counter-screen panel (AID 624167)
PEG-3 [1] = molecular target: PEG-3 (UniProt Q6IN02); settings: HeLa PEG-Prom luciferase reporter, overnight, CREF/GAPDH counter-screens, mean of runs
PEG-3 (UniProt Q6IN02), sequence (Q6IN02 whole entry, looked up): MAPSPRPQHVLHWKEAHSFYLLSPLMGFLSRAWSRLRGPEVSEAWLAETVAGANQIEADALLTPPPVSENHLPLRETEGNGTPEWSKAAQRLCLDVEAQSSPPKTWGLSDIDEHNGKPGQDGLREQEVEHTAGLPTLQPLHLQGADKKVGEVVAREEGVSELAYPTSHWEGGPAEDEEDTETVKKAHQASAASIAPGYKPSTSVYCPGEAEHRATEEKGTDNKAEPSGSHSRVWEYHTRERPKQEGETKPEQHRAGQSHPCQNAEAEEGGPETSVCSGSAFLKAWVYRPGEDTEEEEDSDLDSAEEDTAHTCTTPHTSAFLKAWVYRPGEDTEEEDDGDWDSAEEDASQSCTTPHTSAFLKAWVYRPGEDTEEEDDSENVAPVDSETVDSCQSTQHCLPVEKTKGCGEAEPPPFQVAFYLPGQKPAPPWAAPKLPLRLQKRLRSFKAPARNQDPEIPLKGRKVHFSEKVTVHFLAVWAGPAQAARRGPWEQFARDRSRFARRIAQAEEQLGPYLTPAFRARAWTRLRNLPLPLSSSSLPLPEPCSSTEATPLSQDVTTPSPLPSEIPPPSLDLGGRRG

PEG-3 [2] = settings: HeLa PEG-Prom luciferase reporter, overnight, CREF/GAPDH counter-screens
Rat fibroblasts (CREF) = settings: CREF/GAPDH counter-screens
[3] = run 1, dose range 1, individual replicate IC50 per panel
[4] = run 2, dose range 1, individual replicate IC50 per panel

| Compound | IC50 (PEG-3 [1]) | IC50 (PEG-3 [2]; [3]) [µM] | IC50 (PEG-3 [2]; [4]) [µM] | IC50 (Rat fibroblasts (CREF); mean of runs) [µM] | IC50 (Rat fibroblasts (CREF); [3]) [µM] | IC50 (Rat fibroblasts (CREF); [4]) [µM] |
| --- | --- | --- | --- | --- | --- | --- |
| Cc1cc(S(=O)(=O)c2ccc(Cl)cc2)nc(S(=O)(=O)c2ccc(Cl)cc2)c1C#N | 5.14 µM | 6.14 | 4.14 | 13.1 | 10.9 | 15.3 |
| O=[N+]([O-])c1ccc(-c2ccc(/C=N/Nc3nc(NCc4ccccc4)nc(N4CCOCC4)n3)o2)cc1 | 5.66 µM | 6.13 | 5.18 | 8.54 | 9.4 | 7.68 |
| C=C1CC(COc2ccc3c(C)c(Cl)c(=O)oc3c2)(c2ccccc2)OC1=O (centres undefined) | 5.04 µM | 6.47 | 3.62 | 9.11 | 9.32 | 8.9 |
| O=C(NCCc1ccccc1)c1ccc2c(c1)OCCCO2 | 0.557 µM | 0.466 | 0.647 | 0.589 | 0.374 | 0.803 |
| CN=c1scc(-c2ccccc2F)n1/N=C/c1ccc[nH]1 | inactive | 4.9 | > 100 | 4.52 | 4.41 | 4.63 |
| Cc1cccc(C)c1NC(=O)c1nc(S(=O)(=O)Cc2ccccc2)ncc1Cl | 8.69 µM | 10.1 | 7.29 | 14.6 | 13 | 16.1 |
| O=C(NC1=NCCS1)C1COc2ccccc2O1 (centres undefined) | 1.88 µM | 1.36 | 2.39 | 15.1 | 14.5 | 15.7 |
| Cc1cc(C(=O)COC(=O)c2ccccc2O)c(C)n1Cc1cccs1 | 3.32 µM | 1.79 | 4.86 | 1.36 | 0.812 | 1.9 |
| Cc1cc(C)c2nc(NNC(=O)c3ccc(S(=O)(=O)N4CC(C)CC(C)C4)cc3)sc2c1 (centres undefined) | 5.17 µM | 7.33 | 3.01 | 8.65 | 13.9 | 3.36 |
| COc1ccc(C(=O)O/N=C(\N)c2ccccn2)cc1 | 2.02 µM | 3.11 | 0.926 | 1.62 | 1.32 | 1.93 |
| O=C(Nc1ncc([N+](=O)[O-])s1)c1ccc2c(c1)OCO2 | 2.21 µM | 2.01 | 2.41 | 10.8 | 8.9 | 12.8 |

The next lines start with results.

| IC50 (PEG-3 [1]) | Compound | IC50 (PEG-3 [2]; [3]) [µM] | IC50 (PEG-3 [2]; [4]) [µM] | IC50 (Rat fibroblasts (CREF); mean of runs) [µM] | IC50 (Rat fibroblasts (CREF); [3]) [µM] | IC50 (Rat fibroblasts (CREF); [4]) [µM] |
| --- | --- | --- | --- | --- | --- | --- |
| 2.6 µM | COc1ccc(C(=O)/C=C/Nc2ccccn2)cc1 | 2.02 | 3.18 | 3.61 | 3.45 | 3.77 |
| 3.97 µM | CN(c1ccc2nc3ccccc3c(=O)n2n1)C1CCCCC1 | 3 | 4.94 | 0.772 | 0.789 | 0.755 |
| 2.96 µM | CN(C)c1ccc(/C=C2\SC(=O)N(CCc3nnc(N)s3)C2=O)cc1 | 3.34 | 2.58 | 3.18 | 1.61 | 4.75 |
| 0.723 µM | O=c1c2ccccc2cnn1-c1nc2ccccc2[nH]1 | 0.686 | 0.76 | 0.546 | 0.475 | 0.617 |
| 6.12 µM | CN(C)c1ccc(/C=C/c2nc3ccccc3s2)cc1 | 4.73 | 7.51 | 1.56 | 1.17 | 1.95 |
| 1.24 µM | Cc1ccc2nc(NC(=O)c3ccccn3)sc2c1 | 1.29 | 1.18 | 0.83 | 0.564 | 1.1 |
| 3.37 µM | Cc1ccc(C(=O)Nc2nc3ccccc3[nH]2)cc1 | 2.02 | 4.71 | 0.521 | 0.523 | 0.519 |
| 5.09 µM | CCOc1ccc2c(ccc(/C=C/c3cc(C)c4cccnc4c3O)[n+]2C)c1 | 4.3 | 5.88 | 11.8 | 11.9 | 11.7 |
